Laboratory results published in ChEMBL document CHEMBL1153221, “The identification of structurally novel, selective, orally bioavailable positive modulators of mGluR2” (Bioorg Med Chem Lett, 2010).
In brackets after ≈: the same amount, converted by molar mass. Activity calls are given as the source filed them. The calls are words filed in the database; no cut-off is given here.

Columns and labels:
[1] = target: T1, Metabotropic glutamate receptor 2 (Homo sapiens, UniProt Q14416); test: Positive modulation of human mGluR2 expressed in CHO cells co-expressing Ga16 G-protein assessed as glutamate-induced response by FLIPR assay; type: cell-based
Target sequence in this assay (Q14416 whole entry): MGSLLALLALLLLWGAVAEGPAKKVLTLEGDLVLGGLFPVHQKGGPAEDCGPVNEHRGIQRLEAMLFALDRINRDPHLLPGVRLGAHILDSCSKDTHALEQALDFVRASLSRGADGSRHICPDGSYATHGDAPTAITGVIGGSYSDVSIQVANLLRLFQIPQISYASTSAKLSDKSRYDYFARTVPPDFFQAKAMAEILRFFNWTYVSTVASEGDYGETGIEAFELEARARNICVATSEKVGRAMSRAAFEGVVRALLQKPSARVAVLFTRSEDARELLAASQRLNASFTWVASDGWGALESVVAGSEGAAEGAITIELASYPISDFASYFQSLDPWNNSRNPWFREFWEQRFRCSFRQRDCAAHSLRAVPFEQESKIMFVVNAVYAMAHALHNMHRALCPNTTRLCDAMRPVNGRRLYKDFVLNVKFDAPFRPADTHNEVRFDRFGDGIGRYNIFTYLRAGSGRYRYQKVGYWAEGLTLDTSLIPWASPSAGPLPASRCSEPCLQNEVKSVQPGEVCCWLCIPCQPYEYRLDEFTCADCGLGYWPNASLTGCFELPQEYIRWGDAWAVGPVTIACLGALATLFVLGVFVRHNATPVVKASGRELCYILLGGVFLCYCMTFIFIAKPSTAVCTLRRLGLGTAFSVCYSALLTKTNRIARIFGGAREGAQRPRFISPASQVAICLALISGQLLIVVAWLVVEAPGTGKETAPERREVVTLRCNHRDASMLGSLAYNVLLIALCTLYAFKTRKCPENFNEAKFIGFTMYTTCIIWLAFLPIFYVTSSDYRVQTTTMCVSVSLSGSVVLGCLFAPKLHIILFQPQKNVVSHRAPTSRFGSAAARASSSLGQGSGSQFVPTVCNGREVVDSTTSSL

[2] = target: T1, Metabotropic glutamate receptor 2; test: Positive modulation of human mGluR2 expressed in CHO cells co-expressing Ga16 G-protein assessed as glutamate-induced response by FLIPR assay relative to glutamate; type: cell-based
Target sequence in this assay (Q14416 19-872 limits assumed): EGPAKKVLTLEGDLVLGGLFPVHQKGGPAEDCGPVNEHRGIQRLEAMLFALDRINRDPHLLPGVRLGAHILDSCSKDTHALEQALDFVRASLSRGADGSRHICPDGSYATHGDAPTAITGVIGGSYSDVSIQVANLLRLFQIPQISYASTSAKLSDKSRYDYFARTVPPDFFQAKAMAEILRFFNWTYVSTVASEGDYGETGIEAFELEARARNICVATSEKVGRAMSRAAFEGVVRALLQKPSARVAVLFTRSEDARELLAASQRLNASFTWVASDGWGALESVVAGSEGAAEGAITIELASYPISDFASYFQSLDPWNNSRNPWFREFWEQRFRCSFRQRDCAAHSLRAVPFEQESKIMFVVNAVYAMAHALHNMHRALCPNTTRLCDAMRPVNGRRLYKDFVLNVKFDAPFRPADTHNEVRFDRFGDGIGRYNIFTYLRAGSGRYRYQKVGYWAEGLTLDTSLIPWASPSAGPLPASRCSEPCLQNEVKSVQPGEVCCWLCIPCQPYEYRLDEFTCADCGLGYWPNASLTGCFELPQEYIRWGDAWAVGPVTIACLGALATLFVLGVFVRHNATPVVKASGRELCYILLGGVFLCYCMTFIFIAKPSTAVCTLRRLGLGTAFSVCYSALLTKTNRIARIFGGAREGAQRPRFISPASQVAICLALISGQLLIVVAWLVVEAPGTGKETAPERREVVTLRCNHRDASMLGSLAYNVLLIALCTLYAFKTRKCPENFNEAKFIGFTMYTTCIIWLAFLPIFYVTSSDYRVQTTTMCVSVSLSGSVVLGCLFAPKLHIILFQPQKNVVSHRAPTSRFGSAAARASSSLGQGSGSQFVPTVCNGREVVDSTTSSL

[3] = target: T1, Metabotropic glutamate receptor 2; test: Agonist activity at human mGluR2 expressed in CHO cells co-expressing Ga16 G-protein assessed as glutamate-induced response by FLIPR assay; type: functional, cell-based
Target sequence in this assay (Q14416 whole entry): as the sequence (Q14416 whole entry) above

[4] = target: T2, D(4) dopamine receptor (Homo sapiens, UniProt P21917); test: Antagonist activity at human D4 receptor expressed in HEK293 cells co-expressing Gqo5 G-protein by FLIPR assay; type: functional, cell-based
T2 sequence (P21917 whole entry): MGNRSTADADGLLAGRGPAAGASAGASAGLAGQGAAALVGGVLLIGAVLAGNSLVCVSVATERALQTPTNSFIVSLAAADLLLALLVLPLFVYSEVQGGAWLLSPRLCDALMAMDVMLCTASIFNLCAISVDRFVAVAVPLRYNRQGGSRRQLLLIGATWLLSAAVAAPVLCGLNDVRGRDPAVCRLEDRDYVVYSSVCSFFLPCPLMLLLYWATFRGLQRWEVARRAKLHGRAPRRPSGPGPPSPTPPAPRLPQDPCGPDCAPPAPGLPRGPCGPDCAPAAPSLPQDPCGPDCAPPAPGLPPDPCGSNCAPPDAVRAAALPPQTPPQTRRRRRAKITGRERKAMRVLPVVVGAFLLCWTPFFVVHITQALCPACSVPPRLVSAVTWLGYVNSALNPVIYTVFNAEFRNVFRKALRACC

[5] = target: T3, Metabotropic glutamate receptor 1 (Homo sapiens, UniProt Q13255); test: Agonist activity at mGluR1; type: functional
[6] = target: T3, Metabotropic glutamate receptor 1; test: Antagonist activity at mGluR1; type: functional
[7] = target: T4, Metabotropic glutamate receptor 5 (Homo sapiens, UniProt P41594); test: Agonist activity at mGluR5; type: functional
[8] = target: T4, Metabotropic glutamate receptor 5; test: Antagonist activity at mGluR5; type: functional
[9] = target: T4, Metabotropic glutamate receptor 5; test: Positive modulation of mGluR5
[10] = target: D(2) dopamine receptor (Homo sapiens, UniProt P14416); test: Antagonist activity at human D2 receptor expressed in CHO cells co-expressing G0 by [35S]GTPgammaS binding assay; type: functional, cell-based
[11] = target: D(3) dopamine receptor (Homo sapiens, UniProt P35462); test: Antagonist activity at human D3 receptor expressed in CHO cells co-expressing G0 by [35S]GTPgammaS binding assay; type: functional, cell-based
[12] = target: Metabotropic glutamate receptor 4 (Homo sapiens) (UniProt Q14833); test: Agonist activity at mGluR4; type: functional
[13] = target: Metabotropic glutamate receptor 4 (Homo sapiens) (UniProt Q14833); test: Antagonist activity at mGluR4; type: functional
[14] = target: Metabotropic glutamate receptor 4 (Homo sapiens) (UniProt Q14833); test: Positive modulation of mGluR4
[15] = target: T3, Metabotropic glutamate receptor 1; test: Positive modulation of mGluR1
Target sequence in this assay (Q13255 19-1194 limits assumed): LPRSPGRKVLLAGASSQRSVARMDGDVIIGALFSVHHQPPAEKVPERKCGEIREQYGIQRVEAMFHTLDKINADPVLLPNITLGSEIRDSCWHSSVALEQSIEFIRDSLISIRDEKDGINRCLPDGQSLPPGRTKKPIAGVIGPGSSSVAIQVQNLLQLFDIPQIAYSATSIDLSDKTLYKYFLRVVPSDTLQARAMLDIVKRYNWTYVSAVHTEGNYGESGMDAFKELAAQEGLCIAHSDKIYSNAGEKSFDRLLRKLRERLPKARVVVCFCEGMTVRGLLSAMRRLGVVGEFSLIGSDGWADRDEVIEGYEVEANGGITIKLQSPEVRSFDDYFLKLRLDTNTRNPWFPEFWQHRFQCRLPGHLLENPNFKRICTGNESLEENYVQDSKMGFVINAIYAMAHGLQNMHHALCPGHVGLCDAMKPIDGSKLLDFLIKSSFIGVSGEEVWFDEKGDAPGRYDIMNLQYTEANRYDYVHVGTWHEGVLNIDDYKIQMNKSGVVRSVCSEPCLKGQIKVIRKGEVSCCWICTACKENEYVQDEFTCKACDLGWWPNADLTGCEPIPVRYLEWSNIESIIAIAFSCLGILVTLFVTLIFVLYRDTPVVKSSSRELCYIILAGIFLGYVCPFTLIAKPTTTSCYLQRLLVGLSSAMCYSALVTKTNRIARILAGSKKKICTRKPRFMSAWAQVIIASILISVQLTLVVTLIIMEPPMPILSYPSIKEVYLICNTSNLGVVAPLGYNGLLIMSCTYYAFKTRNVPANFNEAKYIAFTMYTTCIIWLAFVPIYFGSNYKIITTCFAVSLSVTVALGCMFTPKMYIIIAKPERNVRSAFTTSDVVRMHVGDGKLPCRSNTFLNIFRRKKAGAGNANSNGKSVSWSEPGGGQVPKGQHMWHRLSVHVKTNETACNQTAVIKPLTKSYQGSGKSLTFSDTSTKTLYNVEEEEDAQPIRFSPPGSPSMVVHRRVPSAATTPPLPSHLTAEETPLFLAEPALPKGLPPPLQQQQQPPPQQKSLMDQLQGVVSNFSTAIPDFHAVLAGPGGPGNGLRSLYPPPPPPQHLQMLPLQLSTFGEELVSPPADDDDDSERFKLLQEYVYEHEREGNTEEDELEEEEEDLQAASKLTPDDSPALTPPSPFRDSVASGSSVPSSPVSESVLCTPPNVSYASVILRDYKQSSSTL

[16] = Inhibition of field excitatory postsynaptic potential in Wistar rat medial perforant path dentate gyrus after 20 mins by electrophysiological assay; type: functional, tissue-based
[17] = Inhibition of field excitatory postsynaptic potential in Wistar rat medial perforant path dentate gyrus after 20 mins by electrophysiological assay in presence of 10 uM GSK1331268
[18] = Solubility of the compound; type: physicochemical

Sequence of D(3) dopamine receptor (P35462 whole entry): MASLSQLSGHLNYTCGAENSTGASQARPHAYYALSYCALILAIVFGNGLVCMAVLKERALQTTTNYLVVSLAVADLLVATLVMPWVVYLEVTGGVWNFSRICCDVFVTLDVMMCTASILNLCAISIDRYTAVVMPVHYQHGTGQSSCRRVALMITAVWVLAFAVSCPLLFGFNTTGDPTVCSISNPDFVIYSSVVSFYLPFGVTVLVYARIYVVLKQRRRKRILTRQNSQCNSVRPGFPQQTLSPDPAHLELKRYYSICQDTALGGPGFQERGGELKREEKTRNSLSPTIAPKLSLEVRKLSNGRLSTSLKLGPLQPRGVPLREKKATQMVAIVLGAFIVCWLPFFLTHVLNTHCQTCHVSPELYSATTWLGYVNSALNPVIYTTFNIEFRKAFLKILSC
Sequence of Metabotropic glutamate receptor 4 (Homo sapiens) (Q14833 whole entry): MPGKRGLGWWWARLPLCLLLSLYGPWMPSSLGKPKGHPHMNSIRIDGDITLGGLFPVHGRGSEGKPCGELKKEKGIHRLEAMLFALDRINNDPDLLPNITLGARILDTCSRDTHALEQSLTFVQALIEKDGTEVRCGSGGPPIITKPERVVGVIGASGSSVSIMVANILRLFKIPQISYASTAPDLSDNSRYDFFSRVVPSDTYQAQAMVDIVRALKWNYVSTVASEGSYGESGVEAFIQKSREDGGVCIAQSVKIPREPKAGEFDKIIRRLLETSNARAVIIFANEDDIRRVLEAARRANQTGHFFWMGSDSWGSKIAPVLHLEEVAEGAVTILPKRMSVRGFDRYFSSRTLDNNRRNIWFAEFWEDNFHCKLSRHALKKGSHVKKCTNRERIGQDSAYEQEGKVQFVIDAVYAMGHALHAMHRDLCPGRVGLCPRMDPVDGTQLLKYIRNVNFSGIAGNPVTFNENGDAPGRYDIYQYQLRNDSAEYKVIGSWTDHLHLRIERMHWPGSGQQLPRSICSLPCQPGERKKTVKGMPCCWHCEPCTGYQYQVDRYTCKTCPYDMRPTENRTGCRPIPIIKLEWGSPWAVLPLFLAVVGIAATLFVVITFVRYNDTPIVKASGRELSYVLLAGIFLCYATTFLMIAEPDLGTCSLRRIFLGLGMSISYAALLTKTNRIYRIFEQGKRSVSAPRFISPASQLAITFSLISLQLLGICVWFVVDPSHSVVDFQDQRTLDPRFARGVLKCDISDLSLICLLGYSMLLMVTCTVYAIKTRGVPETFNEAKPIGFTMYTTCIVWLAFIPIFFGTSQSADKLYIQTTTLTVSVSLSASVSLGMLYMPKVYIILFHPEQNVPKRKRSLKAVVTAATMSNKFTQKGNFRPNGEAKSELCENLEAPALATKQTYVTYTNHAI
Sequence of D(2) dopamine receptor (P14416 whole entry): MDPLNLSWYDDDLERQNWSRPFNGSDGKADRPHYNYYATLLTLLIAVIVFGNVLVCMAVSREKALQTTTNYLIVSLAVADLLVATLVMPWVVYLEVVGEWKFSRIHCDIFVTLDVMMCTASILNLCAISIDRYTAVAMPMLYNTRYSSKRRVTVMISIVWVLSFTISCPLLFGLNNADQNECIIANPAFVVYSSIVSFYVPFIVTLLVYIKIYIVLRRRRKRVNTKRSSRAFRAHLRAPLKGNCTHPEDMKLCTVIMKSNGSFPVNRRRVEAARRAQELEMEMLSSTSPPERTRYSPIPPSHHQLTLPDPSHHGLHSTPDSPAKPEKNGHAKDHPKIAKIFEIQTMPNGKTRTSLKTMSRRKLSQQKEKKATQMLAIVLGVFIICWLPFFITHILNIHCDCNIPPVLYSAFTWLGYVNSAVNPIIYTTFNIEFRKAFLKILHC

Row | SMILES | EC50 [1] | Emax [2] | EC50 [3] | Ki [4] | Ki [10] | Ki [11] | further results
1 | Cn1c(CN2CCN(c3ccccc3C(F)(F)F)CC2)nc2ccccc21 | 316 nM | 84% | > 15.8 µM | 631 nM |  |  | 
2 | Cn1c(CN2CCN(c3ccccc3)CC2)nc2ccccc21 | 5010 nM | 100% | > 15.8 µM |  |  |  | 
3 | Clc1cnc(N2CCN(Cc3nc4ccccc4n3Cc3ccccc3)CC2)nc1 | 126 nM |  |  |  |  |  | 
4 | Cn1c(CN2CCN(c3ncc(C(F)(F)F)cc3Cl)CC2)nc2cc(F)ccc21 | 200 nM |  |  |  |  |  | 
5 | Cn1c(CN2CCN(c3ccc(Cl)cc3F)CC2)nc2ccccc21 | 126 nM | 69% | 2.51 µM | 251 nM |  |  | 
6 | CCn1c(CN2CCN(c3ncc(C(F)(F)F)cc3Cl)CC2)nc2ccccc21 | 63.1 nM |  |  |  |  |  | 
7 | Cn1c(CN2CCN(c3ncc(Cl)cn3)CC2)nc2ccccc21 | 126 nM | 69% | 1.26 µM | 2510 nM | > 10000 nM | > 10 µM | Activity [5]: inactive; Activity [6]: inactive; Activity [7]: inactive; Activity [8]: inactive; Activity [9]: inactive; Activity [12]: inactive; Activity [13]: inactive; Activity [14]: inactive; Activity [15]: inactive
8 | Cn1c(CN2CCC(c3cccc(C(F)(F)F)c3)CC2)nc2ccccc21 | 100 nM | 94% | 2.51 µM | 251 nM | 126 nM | > 10 µM | 
9 | Cn1c(CN2CCN(c3ccccc3F)CC2)nc2ccccc21 | 794 nM | 64% | 6.31 µM |  |  |  | 
10 | Cn1c(CN2CCN(c3ccc(Cl)cc3)CC2)nc2ccccc21 | 794 nM |  | > 15.8 µM | 126 nM | > 10000 nM | > 10 µM | 
11 | Cn1c(CN2CCN(c3ccc(C#N)cc3)CC2)nc2ccccc21 | > 12600 nM |  |  |  |  |  | 
12 | FC(F)(F)c1cnc(N2CCN(Cc3nc4ccccc4n3Cc3ccccc3)CC2)c(Cl)c1 | 126 nM |  |  |  |  |  | 
13 | Cn1c(CN2CCN(c3ccc(C(F)(F)F)cc3)CC2)nc2ccccc21 | 200 nM | 84% | 6.31 µM | 398 nM | > 10000 nM | > 10 µM | 
14 | Cn1c(CN2CCC(c3ccccc3)CC2)nc2ccccc21 | 200 nM | 89% | 6.31 µM | 100 nM | 25.1 nM | 0.126 µM | 
15 | CCn1c(CN2CCN(c3ncc(Cl)cn3)CC2)nc2ccccc21 | 158 nM |  |  |  |  |  | 
16 | Cn1c(CN2CCN(c3ccccn3)CC2)nc2ccccc21 | 15800 nM | 100% |  |  |  |  | 
17 | CCCn1c(CN2CCN(c3ncc(C(F)(F)F)cc3Cl)CC2)nc2ccccc21 | 2510 nM |  |  |  |  |  | 
18 | Cn1c(CN2CCC(c3ccc(Cl)cc3)CC2)nc2ccccc21 | 79.4 nM | 91% | 5.01 µM | 63.1 nM | 15.8 nM | 0.316 µM | 
19 | COc1ccccc1Oc1ccc(N(Cc2cccnc2)S(=O)(=O)CC(F)(F)F)cc1 |  |  |  |  |  |  | pEC50 [16]: 6.864; pEC50 [17]: 7.364

Row | SMILES | EC50 [1] | Emax [2] | EC50 [3] | Ki [4] | Ki [10] | Ki [11] | further results
20 | FC(F)(F)c1cnc(N2CCN(Cc3nc4ccccc4[nH]3)CC2)c(Cl)c1 | 12600 nM |  |  |  |  |  | 
21 | Clc1cnc(N2CCN(Cc3nc4ccccc4[nH]3)CC2)nc1 | 12600 nM |  |  |  |  |  | 
22 | Cn1c(CN2CCC(c3nsc4ccccc34)CC2)nc2ccccc21 | 200 nM | 84% | 2.51 µM | 200 nM | 79.4 nM | 3.98 µM | 
23 | Cn1c(CN2CCN(c3ccc(C(F)(F)F)cn3)CC2)nc2ccccc21 | 501 nM | 81% | 6.31 µM | 1000 nM | > 10000 nM | > 10 µM | 
24 | Cn1c(CN2CCC(c3ccccc3C(F)(F)F)CC2)nc2ccccc21 | 316 nM | 94% | 6.31 µM |  | > 3160 nM | 0.501 µM | 
25 | Cn1c(CN2CCC(c3ncc(C(F)(F)F)cc3Cl)CC2)nc2ccccc21 | 39.8 nM | 70% | 0.631 µM | 2510 nM | 794 nM | 1.58 µM | 
26 | COCCn1c(CN2CCN(c3ncc(C(F)(F)F)cc3Cl)CC2)nc2ccccc21 | 158 nM |  |  |  |  |  | 
27 | Cn1c(CN2CCC(c3ccccc3F)CC2)nc2ccccc21 | 126 nM |  | 3.98 µM |  | 39.8 nM |  | EC50 [5]: > 15.8 µM; EC50 [6]: > 15.8 µM; EC50 [7]: > 15.8 µM; EC50 [8]: > 15.8 µM; EC50 [9]: > 15.8 µM; solubility [18]: 31 µg/mL (≈ 95.9 µM)
28 | COCCn1c(CN2CCN(c3ncc(Cl)cn3)CC2)nc2ccccc21 | 501 nM |  |  |  |  |  | 
29 | Cn1c(CN2CCC(c3ccc(C(F)(F)F)cc3)CC2)nc2ccccc21 | 100 nM | 110% | 2 µM | 126 nM | 251 nM | > 10 µM | 
30 | Cn1c(CN2CCC(c3cccc(Cl)c3)CC2)nc2ccccc21 | 100 nM | 92% | 3.98 µM | 251 nM | 39.8 nM | 1.58 µM | 
31 | Cn1c(CN2CCN(c3ncc(C(F)(F)F)cc3Cl)CC2)nc2ccc(F)cc21 | 126 nM |  |  |  |  |  | 
32 | CCCn1c(CN2CCN(c3ncc(Cl)cn3)CC2)nc2ccccc21 | 794 nM |  |  |  |  |  | 
33 | Cn1c(CN2CCN(c3nc4ccccc4s3)CC2)nc2ccccc21 | 316 nM | 88% | 2 µM | 794 nM | > 10000 nM | > 10 µM | 
34 | Cn1c(CN2CCN(c3ncc(C(F)(F)F)cc3Cl)CC2)nc2ccccc21 | 79.4 nM | 71% | 2 µM | 631 nM | 5010 nM | 5.01 µM | Activity [5]: inactive; Activity [6]: inactive; Activity [7]: inactive; Activity [8]: inactive; Activity [9]: inactive; Activity [12]: inactive; Activity [13]: inactive; Activity [14]: inactive; Activity [15]: inactive
35 | Cn1c(CN2CCN(c3ncc(C(F)(F)F)cc3Cl)CC2)nc2cc(C#N)ccc21 | 50.1 nM |  |  |  |  |  | 
36 | Cn1c(CN2CCC(c3nc4ccccc4s3)CC2)nc2ccccc21 | 158 nM | 76% | 3.16 µM | 7.94 nM | 398 nM | > 10 µM | 
37 | Cn1c(CN2CCN(c3ncc(C(F)(F)F)cc3Cl)CC2)nc2cc(C(F)(F)F)ccc21 | 2000 nM |  |  |  |  |  | 
38 | Cn1c(CN2CCC(c3ccccn3)CC2)nc2ccccc21 | > 3160 nM |  | > 15.8 µM |  |  |  | 
